Laboratory results: paper PMC5941726, “Evaluating Hepatobiliary Transport with ^18F-Labeled Bile Acids: The Effect of Radiolabel Position and Bile Acid Structure on Radiosynthesis and In Vitro and In Vivo Performance” (Contrast Media & Molecular Imaging, 2018)
“And” between values parts separate entries of the source, which are not always exact repeats. Equal entries are not always repeated. Where two headings read alike, the source gives them in different places.

Tests used:
[1] = Stability of the tracer in formulation for use; assay type: physicochemical
Description: (§1) The logD-value, stability (in formulation for use and mouse serum), and identity of the tracer were assessed as described earlier. Radiochemical purity and percentage ^18F-labeling of precursor were determined by radio-TLC (silica gel TLC; with 10% MeOH in CH2Cl2 and 4 : 1 AcN : H2O, resp.).

[2] = Stability of the tracer in mouse serum; assay type: in vitro ADME
Description: as §1

[3] = LogD determination of the tracers; assay type: physicochemical
Description: as §1

wild-type FVB-mice = assay: Dynamic PET/CT imaging of hepatobiliary transport in wild-type FVB-mice; assay type: in vivo, mouse; details: for Time-to-peak liver / AUC GBI (gallbladder and intestines) / AUC liver (time-activity curve) / Max% ID GBI (gallbladder and intestines) / Max% ID liver: 9 MBq i.v., 1 hour PET-scan; for AUC GBI (gallbladder and intestines) / AUC liver (time-activity curve) / Max% ID GBI (gallbladder and intestines) / Max% ID liver: normalized for 20 g mouse
Description: The in vivo transport characteristics of the ^18F labeled bile acids were evaluated in wild-type FVB-mice (female, 5 w). The tracer described earlier, 3β-[^18F]FCA, was also included as a reference standard. Imaging was performed with a PET/CT (FLEX Triumph II small animal PET/CT-scanner; axial field of view: 7.5 cm; 1.3 mm spatial resolution; TriFoil Imaging). For each tracer, three animals were used. The animals were housed and handled in accordance with the European Ethics Committee guidelines and the experiments were approved by the Animal Experimental Ethical Committee of Ghent University (ECD 15/69).
Food and water were provided ad libitum, but the animals were fasted overnight before a PET/CT-scan. They were anesthetized with 1.5 v : v% isoflurane in O2 and placed on a heated bed. To allow injection of the tracer, a polyethylene intravenous line was inserted in the lateral tail vein and fixed. After the animals were transferred to the scanner animal bed, a 1 hour PET-scan was started and 9 MBq tracer was injected directly after starting the scan. Following this PET-scan, 9 MBq [^18F]FDG was injected and twenty minutes later, a second PET-scan with a 20-minute acquisition time was started.
All PET-scans were obtained in list-mode and were iteratively reconstructed (50 iterations). The 1-hour scan was reconstructed in the following frames: 8 × 15 s; 16 × 30 s; 10 × 60 s; 20 × 120 s. For presentation purposes, Maximum Intensity Projection PET/CT images were generated in Amide software. The data were analyzed using Pmod software v3.405 (PMOD Technologies): Regions Of Interest (ROIs) were drawn manually over the liver, gallbladder, and intestines. On the static [^18F]FDG scan, the left ventricle was delineated and this ROI was pasted on the dynamic scan to obtain an image-derived arterial blood concentration. The uptake of radioactivity in liver, gallbladder, and intestines was expressed as a percentage of the injected dose (% ID) and normalized for the weight of a 20 g mouse. The % ID in these organs was monitored in function of time to obtain time-activity curves (TACs). Biliary clearance of the tracers was determined with equation 2 from Ghibellini et al. [14](2) Biliary clearance=cumulative amount of tracer in gallbladder&intestines/AUC blood concentration0→60 min.
The Area Under the Curve (AUC), % ID, and time-to-peak values of the TACs were determined in GraphPad Prism v3.00 Software. The obtained parameters of the different ^18F labeled bile acids were compared to 3β-[^18F]FCA-values in SPSS Statistics 23 Software. Differences between two groups were analyzed with the nonparametric Mann–Whitney U test. A p value ≤ 0.05 was considered significant.

BSEP = BSEP (Homo sapiens, UniProt O95342); assay: Inhibition of [^3H]TC uptake in BSEP membrane vesicles (efflux assay)
Description: All dosing was performed in triplicate. The plates were suspended in a 37°C water bath 1 minute before the incubation. Incubation was started by adding 10 μL of the ATP solution or buffer solution (negative control). Each well contained a final volume of 30 μL and the plates were incubated for 10 minutes at 37°C.
The contents of each well were pipetted in a glass fiber filter plate (Multiscreen HTS plates; Merck Millipore) and washed 3 times with 200 μL ice-cold buffer solution. Finally, 100 μL 0.1 M NaOH was added: lysis of the vesicles took place for 10 minutes at room temperature. An aliquot was used for liquid scintillation counting.

NTCP = biological target: T1, NTCP (Homo sapiens, UniProt Q14973); assay: Inhibition of [^3H]taurocholate uptake in CHO cells expressing NTCP (competition assay); assay type: cell-based; details: for Ki: 1 μM [^3H]TC, 15 min 37°C, Cheng-Prusoff from IC50 and Km, mean ± SD n = 3
T1 construct: host or cells: Chinese Hamster Ovary (CHO) cells
T1 sequence (Q14973 1-349): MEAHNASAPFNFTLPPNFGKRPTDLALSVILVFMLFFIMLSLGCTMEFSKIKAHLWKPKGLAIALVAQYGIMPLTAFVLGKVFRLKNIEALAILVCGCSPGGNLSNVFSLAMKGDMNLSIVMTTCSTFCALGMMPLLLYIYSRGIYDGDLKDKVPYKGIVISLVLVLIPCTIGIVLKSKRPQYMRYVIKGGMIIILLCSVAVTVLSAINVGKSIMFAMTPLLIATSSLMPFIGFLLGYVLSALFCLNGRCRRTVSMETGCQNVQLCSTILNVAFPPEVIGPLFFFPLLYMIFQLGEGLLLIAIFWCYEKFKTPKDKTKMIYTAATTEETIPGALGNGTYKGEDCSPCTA
From the text: Maintenance of these cell cultures was described earlier.

OATP1B1 [4] = biological target: T2, OATP1B1 (Homo sapiens, UniProt Q9Y6L6)
T2 sequence (Q9Y6L6 1-691): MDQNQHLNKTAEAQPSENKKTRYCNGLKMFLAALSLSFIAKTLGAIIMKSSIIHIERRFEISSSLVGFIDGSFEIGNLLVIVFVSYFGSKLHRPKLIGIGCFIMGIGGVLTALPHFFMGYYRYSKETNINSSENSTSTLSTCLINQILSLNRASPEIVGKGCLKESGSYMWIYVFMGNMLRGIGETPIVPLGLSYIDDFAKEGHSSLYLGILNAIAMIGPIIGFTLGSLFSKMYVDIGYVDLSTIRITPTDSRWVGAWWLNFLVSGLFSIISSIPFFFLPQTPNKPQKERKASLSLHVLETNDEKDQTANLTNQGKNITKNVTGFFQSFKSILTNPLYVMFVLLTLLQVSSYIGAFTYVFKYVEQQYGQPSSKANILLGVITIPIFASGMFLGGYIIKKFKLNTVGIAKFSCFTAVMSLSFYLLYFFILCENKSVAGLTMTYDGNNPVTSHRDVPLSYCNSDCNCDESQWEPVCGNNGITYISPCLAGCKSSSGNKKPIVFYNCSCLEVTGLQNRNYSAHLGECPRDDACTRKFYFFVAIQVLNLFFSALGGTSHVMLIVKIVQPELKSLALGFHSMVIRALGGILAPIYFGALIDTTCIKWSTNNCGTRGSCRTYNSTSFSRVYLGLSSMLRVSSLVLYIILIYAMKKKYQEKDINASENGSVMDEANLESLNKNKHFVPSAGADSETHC
Description: (§2) Chinese Hamster Ovary (CHO) and Human Embryonic Kidney (HEK) cells expressing NTCP and OATP1B1, respectively (Solvo Biotechnologies), were used.
(§3) Cells were seeded in 24-well plates at 400,000 cells/well. […] All dosing solutions were formulated in the washing buffer and dosing was executed in triplicate. The incubation was stopped by placing the plates on ice and adding 1 mL ice-cold 1% BSA HBSS-solution. The supernatant was aspirated and the cells were washed twice with 2 mL ice-cold HBSS-solution. NaOH (250 μl, 0.1 M) was added to lyse the cells and the plates were shaken (15 minutes, 37°C). Aliquots of this lysate were subjected to liquid scintillation counting (TriCarb 2900 TR; Perkin Elmer) and protein determination with a BCA-assay (ThermoFisher Scientific).

OATP1B1 [5] = biological target: T2, OATP1B1; assay: cell-based
Description: as §2, §3

OATP1B1 [6] = biological target: T2, OATP1B1; assay: Inhibition of [^3H]estradiol-17β-glucuronide uptake in HEK cells expressing OATP1B1 (competition assay)
Description: as §2, §3

[7] = wild-type mice, i.v., after 1 hour
[8] = wild-type mice, cumulative amount in gallbladder & intestines / AUC blood concentration 0-60 min, n = 3
[9] = female, FVB, mouse, in vivo, iv, 9 MBq
[10] = female, FVB, mouse, in vivo, iv, 1 h

Chain of BSEP (O95342 whole entry, species assumed): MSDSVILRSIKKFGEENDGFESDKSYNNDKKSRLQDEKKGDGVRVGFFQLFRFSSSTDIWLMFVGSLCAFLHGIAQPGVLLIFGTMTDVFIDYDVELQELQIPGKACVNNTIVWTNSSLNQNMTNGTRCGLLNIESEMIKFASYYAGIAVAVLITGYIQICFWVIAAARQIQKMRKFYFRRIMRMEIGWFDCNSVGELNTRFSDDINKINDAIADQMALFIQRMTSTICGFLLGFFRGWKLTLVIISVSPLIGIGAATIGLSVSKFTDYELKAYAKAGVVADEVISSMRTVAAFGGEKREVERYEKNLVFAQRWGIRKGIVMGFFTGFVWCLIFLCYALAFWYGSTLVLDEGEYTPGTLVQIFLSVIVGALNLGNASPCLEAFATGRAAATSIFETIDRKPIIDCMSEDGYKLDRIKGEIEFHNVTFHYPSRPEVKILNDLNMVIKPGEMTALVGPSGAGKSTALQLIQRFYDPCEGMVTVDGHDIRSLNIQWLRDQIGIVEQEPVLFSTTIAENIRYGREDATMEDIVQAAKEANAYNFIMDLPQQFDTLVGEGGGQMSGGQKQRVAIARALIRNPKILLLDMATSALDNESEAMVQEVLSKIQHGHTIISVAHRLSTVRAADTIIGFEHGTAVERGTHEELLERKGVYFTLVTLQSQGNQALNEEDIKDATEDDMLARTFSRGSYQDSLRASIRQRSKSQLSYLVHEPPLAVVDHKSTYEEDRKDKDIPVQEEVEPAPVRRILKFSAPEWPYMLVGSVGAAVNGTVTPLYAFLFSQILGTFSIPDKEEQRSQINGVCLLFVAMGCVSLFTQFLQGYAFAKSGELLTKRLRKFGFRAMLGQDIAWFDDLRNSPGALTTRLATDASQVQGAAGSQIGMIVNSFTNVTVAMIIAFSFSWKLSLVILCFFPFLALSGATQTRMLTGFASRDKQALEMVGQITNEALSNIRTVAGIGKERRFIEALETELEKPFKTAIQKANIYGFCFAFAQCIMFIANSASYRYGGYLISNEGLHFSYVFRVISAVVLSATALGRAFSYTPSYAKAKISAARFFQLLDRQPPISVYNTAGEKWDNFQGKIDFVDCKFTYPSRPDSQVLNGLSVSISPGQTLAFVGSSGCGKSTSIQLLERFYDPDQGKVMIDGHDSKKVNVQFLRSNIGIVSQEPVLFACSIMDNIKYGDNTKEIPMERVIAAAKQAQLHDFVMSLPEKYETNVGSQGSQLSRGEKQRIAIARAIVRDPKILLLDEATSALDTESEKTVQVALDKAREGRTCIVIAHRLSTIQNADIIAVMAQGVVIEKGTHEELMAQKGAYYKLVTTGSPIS

C[C@H](CCC(=O)O)[C@H]1CC[C@H]2[C@@H]3[C@H](O)C[C@@H]4C[C@H]([18F])CC[C@]4(C)[C@H]3C[C@H](O)[C@]12C [3α-[^18F]FCA, 3α-[^18F]fluorocholic acid]
Stability in its formulation ([1]; formulation for use (phosphate buffered saline)): stable
Stability in mouse serum ([2]; mouse serum): stable
logD ([3]; n = 3, mean ± SD, read-out: LogD): 0.92 ± 0.17
Time-to-peak liver (wild-type FVB-mice; wild-type mice, n = 3): 3.33 ± 0.62 min and 3.33 ± 0.62^∗ min
AUC GBI (gallbladder and intestines) (wild-type FVB-mice; wild-type mice, n = 3): 4184 ± 109^∗ % ID·min
AUC liver (time-activity curve) (wild-type FVB-mice; wild-type mice, n = 3): 1065 ± 171^∗ % ID·min
Max% ID GBI (gallbladder and intestines) (wild-type FVB-mice; wild-type mice, n = 3): 88.70 ± 2.38%
Max% ID liver (wild-type FVB-mice; wild-type mice, n = 3): 58.58 ± 3.19%
Organ uptake after intravenous injection (wild-type FVB-mice; wild-type mice, PET): exclusive hepatic uptake
Injected activity found in gallbladder and intestines after 1 hour (wild-type FVB-mice; [7]): approx. 80%
Biliary clearance (wild-type FVB-mice; [8]): 0.49 ± 0.10 mL/min

C[C@H](CCC(=O)O)[C@H]1CC[C@H]2[C@@H]3[C@H](O)C[C@@H]4C[C@H](F)CC[C@]4(C)[C@H]3C[C@H](O)[C@]12C [3αFCA, 3α-fluorocholic acid]
Ki (BSEP): 199 ± 39.5 µM
Ki (NTCP): 2.53 ± 0.76 µM
Ki (OATP1B1 [4]): 5.22 ± 0.56 µM

C[C@H](CCC(=O)O)[C@H]1CC[C@H]2[C@@H]3[C@H](O)C[C@@H]4C[C@@H]([18F])CC[C@]4(C)[C@H]3C[C@H](O)[C@]12C [3β-[^18F]FCA, 3β-[^18F]fluorocholic acid, reference compound]
Time-to-peak liver (wild-type FVB-mice; wild-type mice, n = 3): 5.33 ± 0.24 min
AUC GBI (gallbladder and intestines) (wild-type FVB-mice; wild-type mice, n = 3): 3499 ± 340 % ID·min
AUC liver (time-activity curve) (wild-type FVB-mice; wild-type mice, n = 3): 1785 ± 194 % ID·min
Max% ID GBI (gallbladder and intestines) (wild-type FVB-mice; wild-type mice, n = 3): 83.44 ± 9.27%
Max% ID liver (wild-type FVB-mice; wild-type mice, n = 3): 63.80 ± 2.61%
Organ uptake after intravenous injection (wild-type FVB-mice; wild-type mice, PET): exclusive hepatic uptake
Injected activity found in gallbladder and intestines after 1 hour (wild-type FVB-mice; [7]): approx. 80%
Biliary clearance (wild-type FVB-mice; [8]): 0.46 ± 0.08 mL/min

C[C@H](CCC(=O)O)[C@H]1CC[C@H]2[C@@H]3[C@H](O)C[C@@H]4C[C@@H]([18F])CC[C@]4(C)[C@H]3CC[C@]12C [3β-[^18F]FCDCA, 3β-[^18F]fluorochenodeoxycholic acid]
Stability in its formulation [1]: stable
Stability in mouse serum [2]: stable
logD [3]: 1.42 ± 0.16
Biliary clearance (wild-type FVB-mice; [9]): 0.18 ± 0.04^∗ mL/min
Injected activity found in gallbladder and intestines after 1 hour (wild-type FVB-mice; [10]): 60%
Organ uptake after intravenous injection (wild-type FVB-mice; mouse, in vivo, iv): exclusive hepatic uptake

C[C@H](CCC(=O)NCC(=O)O)[C@H]1CC[C@H]2[C@@H]3[C@H](O)C[C@@H]4C[C@@H]([18F])CC[C@]4(C)[C@H]3C[C@H](O)[C@]12C [3β-[^18F]FGCA, 3β-[^18F]fluoroglycocholic acid]
Stability in its formulation [1]: stable
Stability in mouse serum [2]: stable
logD [3]: 0.011 ± 0.037
Biliary clearance (wild-type FVB-mice; [9]): 0.47 ± 0.07 mL/min
Injected activity found in gallbladder and intestines after 1 hour (wild-type FVB-mice; [10]): approx. 80%
Organ uptake after intravenous injection (wild-type FVB-mice; mouse, in vivo, iv): exclusive hepatic uptake

C[C@H](CCC(=O)O)[C@H]1CC[C@H]2[C@@H]3[C@H](O)C[C@@H]4C[C@@H](F)CC[C@]4(C)[C@H]3CC[C@]12C [3βFCDCA]
Ki (BSEP): 48.2 ± 3.94 µM
Ki (NTCP): 0.91 ± 0.02 µM
Ki (OATP1B1 [4]): 0.64 ± 0.07 µM

C[C@H](CCC(=O)NCC(=O)O)[C@H]1CC[C@H]2[C@@H]3[C@H](O)C[C@@H]4C[C@@H](F)CC[C@]4(C)[C@H]3C[C@H](O)[C@]12C [3βFGCA, 3β F glycocholic acid]
Ki (BSEP): 87.4 ± 14.6 µM
Ki (NTCP): 1.09 ± 0.34 µM
Ki (OATP1B1 [4]): 4.24 ± 0.16 µM

C[C@H](CCC(=O)O)[C@H]1CC[C@H]2[C@@H]3[C@H](O)C[C@@H]4C[C@H](O)CC[C@]4(C)[C@H]3C[C@@H](F)[C@]12C [12βFCA]
Ki (BSEP; read-out: Ki for BSEP, BSEP membrane vesicles, 0.65 μM [^3H]TC, 10 min 37°C, Cheng-Prusoff from IC50 and Km, mean ± SD n = 3): 367 ± 38.1 µM
Ki (NTCP): 30.1 ± 9.4 µM
Ki (OATP1B1 [4]): 4.56 ± 0.25 µM

C[C@H](CCC(=O)O)[C@H]1CC[C@H]2[C@@H]3[C@H](O)C[C@@H]4C[C@H](O)CC[C@]4(C)[C@H]3C[C@H](O)[C@]12C [CA, Cholic acid]
Ki (OATP1B1 [5]): 42.7 ± 0.16 µM

C[C@]12CC[C@@H]3c4ccc(O)cc4CC[C@H]3[C@@H]1CC[C@@H]2O[C@@H]1O[C@H](C(=O)O)[C@@H](O)[C@H](O)[C@H]1O [[^3H]EbG, [^3H]estradiol-17β-glucuronide]
Vmax of substrate uptake (OATP1B1 [6]; 0–150 μM, 10 min 37°C): 146.4 ± 5.52 pmol/min·mg protein
Km (OATP1B1 [6]; read-out: Km (Michaelis-Menten) of substrate uptake, 0–150 μM, 10 min 37°C): 11.7 ± 1.59 µM

C[C@H](CCC(=O)NCCS(=O)(=O)O)[C@H]1CC[C@H]2[C@@H]3[C@H](O)C[C@@H]4C[C@H](O)CC[C@]4(C)[C@H]3C[C@H](O)[C@]12C [[^3H]TC, [^3H]taurocholate, reference compound]
Vmax of substrate uptake (NTCP; 0–150 μM, 10 min 37°C): 200.4 ± 9.77 pmol/min·mg protein
Km (NTCP; 0–150 μM, 10 min 37°C, read-out: Km (Michaelis-Menten) of substrate uptake): 15.3 ± 2.46 µM
